How the values were obtained:
[1] = refractive index (Na D-line) (dimensionless); conditions: 298.15 K; 101.33 kPa; Liquid; Standard Abbe refractometry
[2] = 298.15 K; for surface tension liquid-gas: Drop volume; for mass density: 101.33 kPa, Liquid
[3] = xn = mol fraction of the nth substance listed; conditions: 298.15 K; for surface tension liquid-gas: Drop volume; for mass density: 101 kPa, Liquid
[4] = refractive index (Na D-line) (dimensionless); xn = mol fraction of the nth substance listed; conditions: 298.15 K, 101 kPa, Liquid

Cc1cccc(C)c1 [1,3-dimethylbenzene]
Conditions | mass density [kg/m3] | refractive index | surface tension liquid-gas [mN/m]
[1] | – | 1.4945 | –
[2] | 859.78 | – | 28.03

Cc1cccc(C)c1 [1,3-dimethylbenzene] + CCCCCC
Conditions | mass density [kg/m3] | refractive index | surface tension liquid-gas [mN/m]
[3], x2 = 0.0431 | 850.57 | – | –
[3], x2 = 0.0522 | – | – | 27.13
[3], x2 = 0.0797 | – | – | 26.69
[3], x2 = 0.0825 | 842.28 | – | –
[3], x2 = 0.1442 | – | – | 25.66
[3], x2 = 0.1572 | 826.64 | – | –
[3], x2 = 0.2008 | – | – | 24.85
[3], x2 = 0.2093 | 815.69 | – | –
[3], x2 = 0.2281 | – | – | 24.48
[3], x2 = 0.2575 | 805.59 | – | –
[3], x2 = 0.2997 | 796.8 | – | –
[3], x2 = 0.3075 | – | – | 23.5
[3], x2 = 0.3563 | 785.03 | – | –
[3], x2 = 0.3603 | – | – | 22.91
[3], x2 = 0.4106 | – | – | 22.39
[3], x2 = 0.4174 | – | – | 22.33
[3], x2 = 0.4278 | 770.24 | – | –
[3], x2 = 0.483 | 758.86 | – | –
[3], x2 = 0.5086 | – | – | 21.5
[3], x2 = 0.5167 | 751.98 | – | –
[3], x2 = 0.5677 | – | – | 21.01
[3], x2 = 0.5833 | 738.31 | – | –
[3], x2 = 0.6294 | 728.97 | – | –
[3], x2 = 0.6431 | – | – | 20.41
[3], x2 = 0.6769 | 719.32 | – | –
[3], x2 = 0.6771 | – | – | 20.15
[3], x2 = 0.7318 | 708.21 | – | –
[3], x2 = 0.7418 | – | – | 19.7
[3], x2 = 0.7668 | – | – | 19.54
[3], x2 = 0.7817 | 698.13 | – | –
[3], x2 = 0.8329 | 687.89 | – | –
[3], x2 = 0.8545 | – | – | 18.99
[3], x2 = 0.8802 | – | – | 18.83
[3], x2 = 0.8914 | 676.22 | – | –
[3], x2 = 0.9446 | 665.65 | – | –
[3], x2 = 0.96 | – | – | 18.29
[4], x2 = 0.0431 | – | 1.4891 | –
[4], x2 = 0.083 | – | 1.484 | –
[4], x2 = 0.1562 | – | 1.4748 | –
[4], x2 = 0.2093 | – | 1.4682 | –
[4], x2 = 0.2997 | – | 1.4569 | –
[4], x2 = 0.3521 | – | 1.4502 | –
[4], x2 = 0.4276 | – | 1.4409 | –
[4], x2 = 0.5167 | – | 1.43 | –
[4], x2 = 0.5798 | – | 1.4223 | –
[4], x2 = 0.6769 | – | 1.4106 | –
[4], x2 = 0.7318 | – | 1.404 | –
[4], x2 = 0.8329 | – | 1.392 | –
[4], x2 = 0.8836 | – | 1.386 | –
[4], x2 = 0.9325 | – | 1.3803 | –

CCCCCC [hexane]
Conditions | mass density [kg/m3] | refractive index | surface tension liquid-gas [mN/m]
[1] | – | 1.3723 | –
[2] | 654.7 | – | 17.91

CCCOC(=O)CC [propyl propanoate]
Conditions | mass density [kg/m3] | refractive index | surface tension liquid-gas [mN/m]
[1] | – | 1.3905 | –
[2] | 875.53 | – | 24.1

CCCOC(=O)CC [propyl propanoate] + Cc1cccc(C)c1
[4]
Conditions | refractive index
x1 = 0.0448 | 1.4894
x1 = 0.1176 | 1.4814
x1 = 0.1702 | 1.4756
x1 = 0.2173 | 1.4704
x1 = 0.3134 | 1.4599
x1 = 0.3923 | 1.4515
x1 = 0.4461 | 1.4458
x1 = 0.4902 | 1.4412
x1 = 0.5421 | 1.4358
x1 = 0.5906 | 1.4308
x1 = 0.6442 | 1.4254
x1 = 0.7474 | 1.4151
x1 = 0.7982 | 1.4101
x1 = 0.8483 | 1.4052
x1 = 0.8942 | 1.4008
x1 = 0.9522 | 1.3952
